Data on one compound can be found in patent US20120012499A1, “TABLET FORMULATION” (Novo Nordisk A/S, priority 2006, published 2012).

≈ marks a conversion by molar mass, not a printed value.

The series is described as follows: solubility of drug substance in pH 5.0 buffer solution. Particulars: aqueous buffer. Format: physicochemical.

Compound `CCOc1cc(CC(=O)N[C@@H](CC(C)C)c2ccccc2N2CCCCC2)ccc1C(=O)O` [repaglinide, (S)-2-Ethoxy-4-[2-[[3-methyl-1-[2-(1-piperidinyl)phenyl]butyl]amino]-2-oxoethyl]benzoic acid] gave a solubility of 9 µg/mL (≈ 19.9 µM).
